This passage reports T/C results from PubChem BioAssay AID248 (DTP/NCI, 2004).

SMILES strings stand for the structures. Several values for one entry are separate records, joined by “and”; a condition that tells them apart may be missing. Identical values can stand only once. Toxic doses and inconclusive results are not listed.

The assay has as its system L1210 leukemia ip in BDF1 mice, survival T/C. In words: NCI In Vivo Anticancer Drug Screen. Data for tumor model L1210 Leukemia (intraperitoneal) in B6D2F1 (BDF1) mice. Particulars: endpoint: mean survival time, higher = longer survival. In short, it runs like this:
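Tumor cells were implanted, animals were treated, and survival was followed. The result divides the treated measurement by the vehicle-control measurement.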

The mark [1] stands for this setting: dose: 100.0 mg/kg/injection, schedule: Q01DX009 (ip), vehicle: Klucel (hydroxypropylcellulose) (HPC).
Setting [2] is: dose: 100.0 mg/kg/injection, schedule: Q04DX003 (ip), vehicle: Klucel (hydroxypropylcellulose) (HPC).
[3] abbreviates: dose: 200.0 mg/kg/injection, schedule: Q04DX003 (ip), vehicle: Klucel (hydroxypropylcellulose) (HPC).
[4] abbreviates: dose: 400.0 mg/kg/injection, schedule: Q04DX003 (ip), vehicle: Klucel (hydroxypropylcellulose) (HPC).
Setting [5] is: dose: 100.0 mg/kg/injection, schedule: Q04DX003 (ip), vehicle: saline with Tween-80.
[6] abbreviates: dose: 12.5 mg/kg/injection, schedule: Q01DX009 (ip), vehicle: saline.
[7] abbreviates: dose: 25.0 mg/kg/injection, schedule: Q01DX009 (ip), vehicle: saline.
Setting [8] is: dose: 50.0 mg/kg/injection, schedule: Q01DX009 (ip), vehicle: saline.
Where [9] appears, read: dose: 100.0 mg/kg/injection, schedule: Q01DX009 (ip), vehicle: saline with Tween-80.
The mark [10] stands for this setting: dose: 200.0 mg/kg/injection, schedule: Q01DX009 (ip), vehicle: saline with Tween-80.
Where [11] appears, read: dose: 200.0 mg/kg/injection, schedule: Q04DX003 (ip), vehicle: saline with Tween-80.
[12] abbreviates: dose: 400.0 mg/kg/injection, schedule: Q04DX003 (ip), vehicle: saline with Tween-80.
[13] abbreviates: dose: 100.0 mg/kg/injection, schedule: Q04DX003 (ip), vehicle: saline.
Where [14] appears, read: dose: 200.0 mg/kg/injection, schedule: Q04DX003 (ip), vehicle: saline.
Where [15] appears, read: dose: 200.0 mg/kg/injection, schedule: Q01DX009 (ip), vehicle: Klucel (hydroxypropylcellulose) (HPC).
[16] abbreviates: dose: 400.0 mg/kg/injection, schedule: Q01DX009 (ip), vehicle: Klucel (hydroxypropylcellulose) (HPC).
The mark [17] stands for this setting: dose: 75.0 mg/kg/injection, schedule: Q01DX001 (ip), vehicle: saline.
[18] abbreviates: dose: 150.0 mg/kg/injection, schedule: Q01DX001 (ip), vehicle: saline.

In the case of `Cc1cccc(NC(=O)CCl)c1`, the T/C was 94 % of control (dose: 25.0 mg/kg/injection, schedule: Q01DX009 (ip), vehicle: Klucel (hydroxypropylcellulose) (HPC)); 87 % of control (dose: 50.0 mg/kg/injection, schedule: Q01DX009 (ip), vehicle: Klucel (hydroxypropylcellulose) (HPC)); 103 % of control and 92 % of control under setting [1]; 103 % of control under setting [2]; 96 % of control and 86 % of control under setting [3]; 99 % of control under setting [4].

`C=CCCCCCCCCC(=O)NCCN1CCOCC1`: under setting [5], the T/C was 101 % of control.

Turning to `C=C1CC[N+]2(C)CCCC12` (stereo unspecified), the T/C under setting [6] was 100 % of control; the T/C under setting [7] was 113 % of control; the T/C under setting [8] was 95 % of control and 91 % of control.

For the molecule `O=C1c2ccccc2-c2c1nc1ccccc1[n+]2[O-]`, the T/C runs as follows: (dose: 75.0 mg/kg/injection, schedule: Q01DX001 (ip), vehicle: saline sonified) 89 % of control; (dose: 150.0 mg/kg/injection, schedule: Q01DX001 (ip), vehicle: saline sonified) 92 % of control; (dose: 300.0 mg/kg/injection, schedule: Q01DX001 (ip), vehicle: saline sonified) 92 % of control.

Consider `CC1(Cc2ccccc2)CCC(=O)O1` (stereo unspecified), for which the T/C under setting [9] is 98 % of control; the T/C under setting [5] was 98 % of control; the T/C under setting [10] was 100 % of control; the T/C under setting [11] was 96 % of control; the T/C (dose: 400.0 mg/kg/injection, schedule: Q01DX009 (ip), vehicle: saline with Tween-80) was 87 % of control; the T/C under setting [12] is 104 % of control.

Take `CNC(C(=O)OCc1ccccc1)C(C)C` (stereo unspecified): the T/C reads like this: under setting [13], 112 % of control; under setting [14], 99 % of control; (dose: 400.0 mg/kg/injection, schedule: Q04DX003 (ip), vehicle: saline) 100 % of control.

Consider `O=C1c2ccccc2-c2nc3cncnc3nc21` (tested in a mixture with another compound), for which the T/C by setting is: under setting [8], 98 % of control; (dose: 100.0 mg/kg/injection, schedule: Q01DX009 (ip), vehicle: saline) 101 % of control; under setting [13], 95 % of control; (dose: 200.0 mg/kg/injection, schedule: Q01DX009 (ip), vehicle: saline) 101 % of control; under setting [14], 101 % of control.

Take `NC(CSC(c1ccccc1)(c1ccccc1)c1ccc(-c2ccccc2)cc1)C(=O)O` (stereo unspecified): the T/C is 103 % of control under setting [6], 104 % of control under setting [7] and 107 % of control under setting [8].

With `CC(=O)c1ccc[n+](Cc2ccc3c(c2)OCO3)c1`, the T/C is 103 % of control (dose: 75.0 mg/kg/injection, schedule: Q01DX001 (ip), vehicle: carboxymethylcellulose (CMC)) and 109 % of control (dose: 150.0 mg/kg/injection, schedule: Q01DX001 (ip), vehicle: carboxymethylcellulose (CMC)).

With `CCc1ccc(NC(=O)N(CCCl)N=O)cc1`, the T/C reads like this: (dose: 10.0 mg/kg/injection, schedule: Q01DX009 (ip), vehicle: Klucel (hydroxypropylcellulose) (HPC)) 168 % of control and 175 % of control; (dose: 20.0 mg/kg/injection, schedule: Q01DX009 (ip), vehicle: Klucel (hydroxypropylcellulose) (HPC)) 157 % of control and 172 % of control; (dose: 25.0 mg/kg/injection, schedule: Q04DX003 (ip), vehicle: Klucel (hydroxypropylcellulose) (HPC)) 124 % of control; (dose: 40.0 mg/kg/injection, schedule: Q01DX009 (ip), vehicle: Klucel (hydroxypropylcellulose) (HPC)) 88 % of control; (dose: 50.0 mg/kg/injection, schedule: Q04DX003 (ip), vehicle: Klucel (hydroxypropylcellulose) (HPC)) 150 % of control and 159 % of control; (dose: 100.0 mg/kg/injection, schedule: Q01DX001 (ip), vehicle: carboxymethylcellulose (CMC)) 101 % of control. The T/C under setting [3] was 105 % of control.

On to `COc1ccc(CCN2CSC(=S)N(CCc3ccc(OC)c(OC)c3)C2)cc1OC`, for which the T/C under setting [1] was 97 % of control; the T/C under setting [2] is 97 % of control; the T/C under setting [15] is 100 % of control; the T/C under setting [3] is 97 % of control; the T/C under setting [16] was 94 % of control; the T/C under setting [4] is 95 % of control.

`COc1cc(Oc2c(OC)cc(NC(C)=O)cc2OC)cc(OC)c1OC`: the T/C runs as follows: under setting [5], 94 % of control; under setting [11], 97 % of control; under setting [12], 95 % of control.

For `COc1cc(C2N=C(N)N=C(N)N2c2ccc(S(N)(=O)=O)cc2)cc(OC)c1OC` (stereo unspecified), the T/C reads like this: under setting [17], 93 % of control; under setting [18], 96 % of control.

As to `CCCN(CCC)C(=O)OCC`, the T/C is, setting by setting: under setting [9], 97 % of control; under setting [10], 100 % of control.

Take `O=C1c2ccccc2C(=O)c2ccccc21`: the T/C was 102 % of control under setting [1], 88 % of control under setting [15] and 100 % of control under setting [16].

For the molecule `CN(O)C(=O)OC(C)(C)C`, the T/C (dose: 100.0 mg/kg/injection, schedule: Q01DX001 (ip), vehicle: other) is 108 % of control; the T/C (dose: 200.0 mg/kg/injection, schedule: Q01DX001 (ip), vehicle: other) is 108 % of control; the T/C (dose: 400.0 mg/kg/injection, schedule: Q01DX001 (ip), vehicle: other) was 114 % of control.

Regarding `CCN(CC)CCNc1nc(N)nc2c1nnn2CC`, the T/C runs as follows: (dose: 100.0 mg/kg/injection, schedule: Q04DX003 (ip), vehicle: gum acacia) 93 % of control; (dose: 200.0 mg/kg/injection, schedule: Q04DX003 (ip), vehicle: gum acacia) 91 % of control.

In the case of `Cc1ccc(Oc2cccc(C(=O)O)c2)cc1`, the T/C was 107 % of control under setting [2], 96 % of control under setting [3] and 118 % of control under setting [4].

For the molecule `COC(=O)C1(C)COP(=O)(Nc2ccc(OC)cc2)OC1` (stereo unspecified), the T/C reads like this: (dose: 100.0 mg/kg/injection, schedule: Q01DX001 (ip), vehicle: saline) 89 % of control; (dose: 200.0 mg/kg/injection, schedule: Q01DX001 (ip), vehicle: saline) 89 % of control.

Take `CCOc1ccc(N=Cc2ccc(OC(=O)c3ccccc3)c(OC)c2)cc1`: the T/C is 102 % of control (dose: 100.0 mg/kg/injection, schedule: Q04DX002 (ip), vehicle: saline with Tween-80); 95 % of control (dose: 200.0 mg/kg/injection, schedule: Q04DX002 (ip), vehicle: saline with Tween-80); 113 % of control (dose: 400.0 mg/kg/injection, schedule: Q04DX002 (ip), vehicle: saline with Tween-80).

Regarding `C=CCC1(/C(C)=C/C)C(=O)NC(=O)NC1=O`, the T/C reads like this: under setting [17], 100 % of control; under setting [18], 94 % of control.

For the molecule `S=P(Nc1ccc(Cl)cc1Cl)(Nc1ccc(Cl)cc1Cl)c1ccccc1`, the T/C by setting is: under setting [1], 102 % of control; under setting [15], 100 % of control; under setting [16], 110 % of control.

For the molecule `O=C1/C(=C/c2ccc(O)c(O)c2)Cc2ccccc21`, the T/C by setting is: under setting [2], 117 % of control; under setting [3], 105 % of control; under setting [4], 104 % of control.
